According to patent US20140308298A1, “Diagnostic and Treatment of an Androgen-Independent Prostate Cancer” (UNIVERSITE D'AIX MARSEILLE, priority 2011, published 2014):

Columns and labels:
Du145 cells [1] = experiment: Western blot of phosphorylated cRaf, MEK1/2, ERK and Akt in Du145 cells; assay type: cell-based, human
Description: (§1) FIG. 2: Adrenomedullin stimulates Du145 cell proliferation and invasion in vitro. A, AM induced cAMP formation in cultured Du145 cells. Cells (3×10^4 cells/ml) were treated with AM (10^−9 M-10^−7 M) for different times. Each value is the mean±SEM of three independent experiments performed in quadruplate (*, p<0.05; **, p<0.01; ***, p<0.001). B, oppose effects of AM and αAM on the growth of Du145 cells in vitro. For proliferation assays, Du145 cells were seeded at the density of 1×10^4 per well in 6 multiwell plates in presence of RPMI 1640 medium supplemented with 5% FBS. AM at 10^−7 M and αAM (70 μg/ml) were added. As control, rabbit control IgG (70 μg/ml) of irrelevant specificity was used. For each treatment, three wells were prepared, exposed to trypsin and cells were counted in Coulter Counter. Each bar represents the mean±SEM of four independent experiments (**, p<0.01; ***, p<0.001). C, AM stimulates Du145 cells invasion in vitro. Du145 cells (1.5×10^4 cells) were added into Biocoat Matrigel invasion upper chamber and 10^−7 M of AM were added into the lower chamber, and after 6 h, noninvaded cells in the upper membrane were removed and cells invading into the lower membrane were quantified by fluorescence by adding DAPI reagent at least 45 min before taking the reading. RPMI 1640 containing 2% FBS was used as control. bFGF was used as positive control. Data are expressed as the number of migrated cells in 10 high-power fields and are the means of results from three independent experiments. Each bar represents the mean±SEM (**, p<0.01; ***, p<0.001). D, intracellular signalling pathway induced by AM in Du145 cells. Western blot analysis of phosphorylated cRAF (pcRAF), pMEK1/2, pERK (44 and 42 kDa) and ERK in Du145 cells, stimulated with AM (5×10^−7 M) for 2, 5, 10, 20, and 30 min. AM (5×10^−7 M)-induced phosphorylation of ERK was inhibited by mitogen-activated protein kinase kinase inhibitor, U0126 (10 μM, 30 min). EGF was used as positive control known to stimulate phosphorylation of cRAF, MEK, and ERK. To assess the amount of proteins loaded for each sample, immunoblot analysis was performed with anti-α-actin.
Western blotting analysis: Cell extracts were prepared and processed for CLR, RAMP2 and RAMP3 western blot analysis as described (29). Immunoblotting of phospho-c-Raf, phospho-MEK1/2, phospho-ERK1/2, and ERK1/2 was performed using MAPK-phospho-ERK1/2 pathway samples kit (Cell Signaling Technologie, Inc.).

Du145 cells [2] = experiment: Matrigel invasion assay (modified Boyden chamber), Du145 cells; assay type: cell-based, human
Description: as §1, with “C, AM stimulates Du145 cells invasion in vitro.” left out, “RPMI 1640 containing 2% FBS was used as control. bFGF was used as positive control.” left out, “Each bar represents the mean±SEM (**, p<0.01; ***, p<0.001). D, intracellular signalling pathway induced by AM in Du145 cells. Western blot analysis of phosphorylated cRAF (pcRAF), pMEK1/2, pERK (44 and 42 kDa) and ERK in Du145 cells, stimulated with AM (5×10^−7 M) for 2, 5, 10, 20, and 30 min. AM (5×10^−7 M)-induced phosphorylation of ERK was inhibited by mitogen-activated protein kinase kinase inhibitor, U0126 (10 μM, 30 min). EGF was used as positive control known to stimulate phosphorylation of cRAF, MEK, and ERK. To assess the amount of proteins loaded for each sample, immunoblot analysis was performed with anti-α-actin.” left out

human LEC = experiment: Proliferation, migration and invasion of human LECs in vitro; assay type: cell-based; conditions: AM 10^-7 M; proliferation 6 days, migration 20 h, invasion 48 h
Description: Neonatal Human Dermal Lymphatic Microvascular Endothelial Cells (HMVEC-dLyNeo) were purchased from Lonza (Lonza, Basel, Switzerland), and expanded in microvascular endothelial cell growth medium-2 (EGM-2MV, Lonza) with growth supplements (EGM-2MV, Lonza). A, total RNA (1 μg) DNA-free from LECs was reverse transcribed into cDNA and subjected to real-time quantitative reverse transcription (RT)-PCR for the estimation of relative AM, CLR, RAMP2 and RAMP3 mRNAs to 18S rRNA ratio. B, oppose effect of AM and αAM on the growth of LECs in vitro. For proliferation assay, LECs were seeded at the density of 3.5×10^4 per well in 6 multiwell plates in the presence of EBM-2 medium supplemented with 0.5% FBS. AM (10^−7 M) and αAM (70 μg/ml) were added for 6 days treatment. After treatment, cells were exposed to trypsin and were prepared for cell number counting in a coulter counter. […] Cells migrating through the filter were counted after 20 h (C) and those migrating in presence of Matrigel were counted after 48 h (D). Data are expressed as the number of migrated cells in 10-high-power fields, and the values represent the mean±SEM of three independent experiments each performed in triplicate (*p<0.05; **p<0.01; ***p<0.001).
Cell migration and invasion assays: The migration and chemoinvasion were assessed using a modified Boyden chamber assay (7). […]

LNCaP cells [3] = experiment: Matrigel invasion assay (modified Boyden chamber), LNCaP cells; assay type: cell-based, human
Description: (§2) FIG. 10: Effect of AM and αAM on LNCaP cells in vitro. A, total RNA (1 μg) DNA-free from LNCaP cell line was reverse transcribed into cDNA and subjected to real-time quantitative reverse transcription (RT)-PCR for the estimation of relative CLR, RAMP2 and RAMP3 mRNAs to 18S rRNA ratio. B, effects of AM and αAM on LNCaP cells growth in vitro. For proliferation assay, LNCaP cells were seeded and treated in the presence of 5% FBS as described for PC3 cells in FIG. 9. C, no effects of AM on LNCaP cells invasion in vitro. For invasion assays, LNCaP cells (5×10^4 cells) were seeded on a Matrigel layer in a boyden chamber assay and analyzed as described for PC3 cells in FIG. 9.
Cell migration and invasion assays: The migration and chemoinvasion were assessed using a modified Boyden chamber assay (7). Du145 (15×10^−3), LNCaP (50×10^−3), and PC3 (30×10^−3) cells were added to the upper compartment during 6 h. For LECs, (30×10^−3) cells were added during 48 h for invasion and 20 h for migration.

Du145 cells [4] = experiment: Cyclic AMP assay in Du145 cells; assay type: cell-based, human
Description: as §1, with “To assess the amount of proteins loaded for each sample, immunoblot analysis was performed with anti-α-actin.” left out

PC-3 cells [5] = experiment: Matrigel invasion assay (modified Boyden chamber), PC3 cells; assay type: cell-based, human; conditions: AM 10^-7 M, 6 h
Description: (§3) FIG. 9: Effect of AM on PC3 cells in vitro. A, expression of AMR mRNAs in PC3 cells. Total RNA (1 μg) DNA-free from PC3 cell line was reverse transcribed into cDNA and subjected to real-time quantitative reverse transcription (RT)-PCR for the estimation of relative CLR, RAMP2 and RAMP3 mRNAs to 18S rRNA ratio. B, effects of AM and αAM on the growth of PC3 cells in vitro. For proliferation assays, PC3 cells were seeded at the density of 2×10^4 per well in 24 multiwell plates in the presence of RPMI 1640 medium supplemented with 2% FBS. AM at 10^−7M or αAM (70 μg/ml) were added. As control, rabbit control IgG (70 μg/ml) of irrelevant specificity was used. For each treatment, six wells were prepared, exposed to trypsin and cells were counted in Coulter Counter. Each bar represents the mean±SEM of four independent experiments. […] PC3 cells (3×10^4 cells) were added into Biocoat Matrigel invasion upper chamber and 10^−7 M of AM were added into the lower chamber, and after 6 h, non-invaded cells in the upper membrane were removed and cells invading into the lower membrane were quantified by fluorescence by adding DAPI reagent 45 min before taking the reading. Data are expressed as the number of migrated cells in 10 high-power fields and are the means of results from three independent experiments each performed in triplicate. bFGF was used as positive control. […]

PC-3 cells [6] = experiment: Cell proliferation assay, PC3 cells; assay type: cell-based, human; conditions: AM 10^-7 M or αAM 70 μg/ml; 2% FBS
Description: as §3

LNCaP cells [7] = experiment: Cell proliferation assay, LNCaP cells; assay type: cell-based, human; conditions: AM 2×10^-7 M; 5% FBS
Description: as §2
Cell proliferation assay: The effects of AM, αAM and control IgG on cell proliferation was examined at the indicated time points as described (19).

Du145 cells [8] = experiment: Cell proliferation assay, Du145 cells; assay type: cell-based, human; conditions: AM 10^-7 M
Description: as §1, with “C, AM stimulates Du145 cells invasion in vitro.” left out, “RPMI 1640 containing 2% FBS was used as control. bFGF was used as positive control.” left out, “Each bar represents the mean±SEM (**, p<0.01; ***, p<0.001). D, intracellular signalling pathway induced by AM in Du145 cells. Western blot analysis of phosphorylated cRAF (pcRAF), pMEK1/2, pERK (44 and 42 kDa) and ERK in Du145 cells, stimulated with AM (5×10^−7 M) for 2, 5, 10, 20, and 30 min. AM (5×10^−7 M)-induced phosphorylation of ERK was inhibited by mitogen-activated protein kinase kinase inhibitor, U0126 (10 μM, 30 min). EGF was used as positive control known to stimulate phosphorylation of cRAF, MEK, and ERK. To assess the amount of proteins loaded for each sample, immunoblot analysis was performed with anti-α-actin.” left out

[9] = tested on: lymphatic endothelial cells; experiment: LEC death after serum deprivation; assay type: cell-based, human; conditions: AM 10^-7 M
Description: FIG. 12. AM is a growth factor survival for lymphatic endothelial cells. Time course of LEC death after DMEM serum deprivation in the absence and presence of AM (10^−7M). Exponentially growing cells were changed into serum-free medium, and all floating cells after 12, 24 and 48 h were counted with a coulter counter. Each point and bar represents mean±SEM (n=6); values were normalized to the total number of floating dead cells 48 h after serum deprivation in the absence of AM, which was set at 100%. **, p<0.01.

## N#CC(=C(/N)Sc1ccccc1N)/C(C#N)=C(\N)Sc1ccccc1N [U0126]
Du145 cells [1]; U0126 10 μM, 30 min, AM 5×10^-7 M
  inhibition of p-ERK induced by AM: completely inhibited

## bFGF: Growth factor used as positive control in invasion and migration assays
Du145 cells [2]; bFGF 10^-6 M, positive control
  effect on invasion relative to AM: similar

## adrenomedullin [AM]
Human LEC
  effect of AM on LECs: induces proliferation, migration and invasion of LECs
Du145 cells [1]; AM 5×10^-7 M, as early as 2 and 5 min, sustained up to 30 min
  levels of p-MEK and p-ERK: significantly increased
Du145 cells [1]; AM 5×10^-7 M, as early as 2 min, control levels up to 10 min
  cRaf phosphorylation: increased cRaf phosphorylation
Du145 cells [1]; AM stimulation
  level of p-Akt: not markedly increased
LNCaP cells [3]
  effect on LNCaP cells invasion: No effect
Du145 cells [4]; AM 10^-7 M
  time at which cAMP increase reached a maximum: 5 min
Du145 cells [4]; AM 10^-7 M, IBMX 10^-4 M
  increase in cAMP content: 2.8±0.14 fold
Du145 cells [4]; AM 10^-9-10^-7 M, 5 min
  stimulation of cAMP formation with graded concentration: dose-dependent stimulation
PC-3 cells [5]
  induction of invasion: 144±7.6%
PC-3 cells [6]
  proliferative response of PC-3 cells: no proliferative responses
LNCaP cells [7]
  growth rates of LNCaP cells versus control cells: slight decrease in the growth rates
Du145 cells [8]; 6 days
  stimulation of proliferation compared with untreated cells: 51±9.9%
Du145 cells [8]; 8 days
  stimulation of proliferation compared with untreated cells: 96±14.6%
[9]; persisted during 48 h, LECs
  apoptosis (floating cells) after serum deprivation: prevented the apoptosis
[9]; serum deprived LECs
  apoptotic cell death of adherent culture: markedly suppressed
Du145 cells [2]; AM 10^-7 M in bottom wells, 6 h
  increase of invasion compared with control: 92±22%
